Laboratory results from patent US10577322B2, “5-methoxytryptophan and its derivatives and uses thereof” (National Health Research Institutes, priority 2015, dated 2020).

Columns and labels:
atherosclerotic lesions = experiment: Lipid accumulation and atherosclerotic lesions in ApoE-deficient mice on high fat diet; type: in vivo; details: 23.5 mg/kg 3 times a week i.p., 8 weeks
Description: ApoE-deficient mice at 6 weeks were placed on a Western high fat diet containing 1.25% cholesterol and 21% fat (Research. Diets). The mice were simultaneously treated with vehicle (PBS), 5-MTP or 5-MTPE (23.4 mg/kg body weight, 3 times a week) by intraperitoneal injection. After 8 weeks, the aortic trees were dissected and lesions examined in the aortic arch and its branches. The aortas were carefully freed of connective and adipose tissue under a dissection microscope, opened longitudinally and stained with Oil red 0.
Since reduction of serum 5-MTP in CAD patients may be associated with the development of vascular disease, we determined whether exogenous 5-MTP derivatives exert protective effect in the development of atherosclerosis. ApoE-deficient mice were fed a Western high fat diet containing 1.25% cholesterol and 21% fat (Research Diets) starting at 6 weeks of age. The mice were simultaneously treated with vehicle (PBS), 5-MTP or 5-MTPE (23.5 mg/kg body weight, 3 times a week) by intraperitoneal injection. After 8 weeks, the aortic trees were dissected and lesions examined in the aortic arch and its branches.

COX-2 promoter = experiment: COX-2 promoter-luciferase assay in RAW264.7 cells; type: cell-based, mouse; details: for LPS-induced COX-2 promoter activity (luciferase): LPS 8 h
Description: RAW264.7 macrophages were cotransfected with COX-2 promoter-luciferase, IL-6 promoter-luciferase constructs as previously described (Lee, G. L., et al.) or p5xNF-κB-luciferase (Stratagene) and pcDNA3.1-β-galactosidase plasmids using FuGENE 6 (Roche). After overnight transfection, the cells were incubated with or without LPS in the presence or absence of 5-MTP for 8 h. After treatment, cells were lysed, and luciferase activity was measured using an assay kit (Promega). β-galactosidase activity was used to normalize the data.
After pretreating mouse macrophage RAW264.7 cells with different concentrations of 5-MTP for 30 min, cells were stimulated with LPS for 8 h. Cell lysates were immunoblotted with antibodies for COX-2 or β-actin. In addition, RAW264.7 cells were transfected with COX-2 promoter-luciferase plasmid. After 24 h transfection, the cells were incubated with LPS for 8 h. Luciferase activity was measured. The experiments were repeated 3 times with similar results. The results shown in FIGS. 3A-3B confirmed that 5-MTP blocked LPS-induced COX-2 protein expression and promoter activity in a concentration-dependent manner in RAW264.7 cells.
(§1) Herein, after pretreating RAW264.7 cells with different concentrations of 5-MTP, 5-MTPE, COX-2 inhibitors (NSC398 or SC560) and NF-κB inhibitor JSH-23 for 30 min, cells were stimulated with LPS. In addition, RAW264.7 cells were also transfected with COX-2 promoter-luciferase plasmid. After 24 h transfection, the cells were incubated with LPS for 8 h. Luciferase activity as measured.

[1] = test system: BT474 breast cancer cells; experiment: Transwell cell migration assay, BT474; type: cell-based; details: 30 min pretreatment, PMA 4 h or 24 h
Description: (§2) Briefly, cells (10^4/well) were seeded on the upper chamber (6.5-mm insert, 8-μm polycarbonate membrane; Corning Inc.), which was placed in each well of a 24-well plate. The lower chamber was filled with 700 μL DMEM supplemented with 10% FBS. For assessment of in vitro invasion, cells were seeded onto the upper chamber insert coated with Matrigel (BD Biosciences) under the same conditions as the transwell migration assays. At the indicated time, nonmigrated cells that remained at the top surface of the insert were removed with a cotton swab. Cells that migrated to the lower membrane surface and cells that invaded through the matrigel gel to the underside of the membrane were fixed, stained with 0.1% crystal violet for 20 min, and counted under light microscopy. All of the assays were done in triplicate with excellent reproducibility.
(§3) Lung cancer A549 and breast cancers BT474 and T47D cells were pretreated with different concentrations of 5-MTP or 5-MTPE for 30 min, then stimulated with PMA for 4 h or 24 h. Cell migration was measured by the transwell migration assay.

COX-2 = experiment: PMA-induced COX-2 expression in A549 cells (immunoblot); type: cell-based; details: for PMA-induced COX-2 protein expression: 30 min pretreatment, PMA 8 h
Description: Cellular protein were resolved by 5% to 20% SDS-PAGE and transferred to nitrocellulose membranes and blotted with specific antibodies as previously described (Lee, G. L., et al.).
After pretreating A549 cells with different concentrations of 5-MTP, 5-MTPE and NACT-5-MTP for 30 min, cells were stimulated with PMA for 8 h. Cell lysates were immunoblotted with antibodies for COX-2 or β-actin.

[2] = test system: vascular smooth muscle cells; experiment: Calcifying medium-induced calcification in vascular smooth muscle cells; type: cell-based
Text: Vascular smooth muscle cell (VSMC) calcification is the major phenomenon to induce atherosclerotic vascular calcification in cardiovascular disease (CVD). We next investigated the effect of 5-MTP derivatives on VSMC calcification.

IL-6 = experiment: LPS-induced IL-6 level in RAW264.7 culture supernatants (ELISA); type: cell-based, mouse; details: RAW264.7 cells; for LPS-induced IL-6 level in culture supernatants: 30 min pretreatment, LPS 24 h
Description: Mouse RAW264.7 macrophages were from the American Type Culture Collection and cultured in DMEM containing 10% FBS. […] The duration of LPS (100 ng/ml) treatment varied depending on the experiment.
Moreover, RAW264.7 cells and IL-6 promoter-luciferase plasmid transfected RAW264.7 cells were pretreated with different concentrations of 5-MTP for 30 min, followed by LPS stimulation for 8 h. IL-6 promoter activity was measured by luciferase assay. IL-6 level in culture supernatants was measured by ELISA.
Furthermore, RAW264.7 cells were treated with different concentrations of 5-MTP or 5-MTPE for 24 h. Cell viability was determined by MTT assay. In another experiment, after pretreating RAW264.7 cells with different concentrations of 5-MTP or 5-MTPE for 30 min, cells were stimulated with LPS for 24 h. IL-6 level in culture supernatants was measured by ELISA.
as §1

A549 lung cancer cells = experiment: Transwell cell migration assay, A549; type: cell-based; details: 30 min pretreatment, PMA 4 h or 24 h
Description: as §2, §3

T47D breast cancer cells = experiment: Transwell cell migration assay, T47D; type: cell-based; details: 30 min pretreatment, PMA 4 h or 24 h
Description: as §2, §3

Compound | lipid accumulation in the arteries (atherosclerotic lesions; ApoE-deficient mice) | LPS-induced COX-2 promoter activity (luciferase) (COX-2 promoter) | PMA-induced BT474 cell migration [1] | PMA-induced COX-2 protein expression (COX-2) | calcifying medium-induced calcification [2] | LPS-induced IL-6 level in culture supernatants (IL-6) | LPS-induced IL-6 protein expression (IL-6; LPS 8 h) | PMA-induced A549 cell migration (A549 lung cancer cells) | PMA-induced T47D cell migration (T47D breast cancer cells) | lipid accumulation in atherosclerotic lesions (Oil red O) (atherosclerotic lesions) | COX-2 suppressive activity compared with JSH-23 (COX-2 promoter; LPS) | COX-2 suppressive activity compared with 5-MTP (COX-2; PMA) | LPS-induced IL-6 level in culture supernatants (IL-6; listed as 5MTPE) | suppressive capacity on IL-6 production in comparison with 5-MTP, COX-2 inhibitors (IL-6; 24 h after LPS) | IL-6 suppressive activity compared with JSH-23 (IL-6; LPS)
COc1ccc2[nH]cc(C[C@H](N)C(=O)O)c2c1 [5-MTP, 5-methoxytryptophan] | less lipid accumulation | dose-dependently blocked | abrogated | suppress | reduced | dose-dependently blocked | inhibited | abrogated | abrogated | – | – | – | – | – | –
COC(=O)C(N)Cc1c[nH]c2ccc(OC)cc12 (stereo not shown) [5-MTPE, ester-5-MTP] | – | dose-dependently blocked | abrogated | dose-dependently blocked | reduced | significantly inhibited | – | abrogated | abrogated | suppressed lipid accumulation | potent than that of NF-κB inhibitor JSH-23 | potent than that of 5-MTP | dose-dependently blocked | better suppressive capacity | potent than that of NF-κB inhibitor JSH-23
